How the values were obtained:
Jack bean urease (JBU) [1] = biological target: T1, Jack bean urease (JBU) (Canavalia ensiformis, UniProt P07374); experiment: ESI-MS urea depletion assay with purchased jack bean urease; standard inhibitor; type: biochemical
T1 construct: JBU-type III from Canavalia ensiformis

Jack bean urease (JBU) [2] = biological target: T1, Jack bean urease (JBU); experiment: ESI-MS urea depletion assay with purchased jack bean urease; type: biochemical

T1 sequence (P07374 whole entry, looked up): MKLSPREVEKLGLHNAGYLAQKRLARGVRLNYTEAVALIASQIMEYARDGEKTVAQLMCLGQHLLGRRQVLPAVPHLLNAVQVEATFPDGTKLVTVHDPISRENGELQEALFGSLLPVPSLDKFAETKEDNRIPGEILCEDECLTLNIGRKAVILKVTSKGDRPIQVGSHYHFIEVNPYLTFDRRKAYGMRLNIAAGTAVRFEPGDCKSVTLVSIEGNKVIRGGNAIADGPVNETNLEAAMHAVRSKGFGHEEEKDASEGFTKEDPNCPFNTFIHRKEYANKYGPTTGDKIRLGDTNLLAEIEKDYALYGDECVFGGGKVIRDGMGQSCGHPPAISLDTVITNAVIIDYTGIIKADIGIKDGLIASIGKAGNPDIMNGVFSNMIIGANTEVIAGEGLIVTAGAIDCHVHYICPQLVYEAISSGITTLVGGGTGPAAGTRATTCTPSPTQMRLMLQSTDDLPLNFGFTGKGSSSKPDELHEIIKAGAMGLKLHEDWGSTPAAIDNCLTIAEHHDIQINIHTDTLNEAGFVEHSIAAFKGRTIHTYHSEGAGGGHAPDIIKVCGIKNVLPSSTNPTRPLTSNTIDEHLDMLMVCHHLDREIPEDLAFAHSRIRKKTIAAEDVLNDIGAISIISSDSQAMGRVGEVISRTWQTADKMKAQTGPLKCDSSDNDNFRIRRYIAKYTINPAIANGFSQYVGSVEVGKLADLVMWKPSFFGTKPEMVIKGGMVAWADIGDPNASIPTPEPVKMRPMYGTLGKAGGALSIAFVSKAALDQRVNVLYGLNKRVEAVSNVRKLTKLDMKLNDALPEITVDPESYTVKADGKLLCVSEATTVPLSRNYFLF

Structure (SMILES)	IC50 (Jack bean urease (JBU) [1])	IC50 (Jack bean urease (JBU) [2])
CC(=O)NO [AHA, acetohydroxamic acid]	3.2 µM	–
O=C(O)c1ccc(O)c(O)c1 [PCA, 3,4-dihydroxybenzoic acid]	–	1700 nM

Reference: PMC6151788, “Biological Evaluation and Molecular Docking of Protocatechuic Acid from Hibiscus sabdariffa L. as a Potent Urease Inhibitor by an ESI-MS Based Method” (Molecules : A Journal of Synthetic Chemistry and Natural …, 2017)
